Test results published in article PMC3046873 (ACS medicinal chemistry letters, 2011).

Assays:
[1] = background statement, no reference given, cited from earlier work
Plasmodium falciparum [2] = conditions: cited from earlier work
Plasmodium falciparum [3] = experiment: Activity against the malaria parasite Plasmodium falciparum; conditions: fold versus 1

| SMILES | oral availability [1] | half-life in plasma ([1]; plasma) | EC50 (Plasmodium falciparum [2]) | increased activity against Plasmodium falciparum relative to 1 (Plasmodium falciparum [3]) |
| --- | --- | --- | --- | --- |
| O=CN(O)CCCP(=O)(O)O [Compound 1, Fosmidomycin] | poor | ~ 1 h | – | – |
| O=CN(O)CCC(c1ccc(Cl)c(Cl)c1)P(=O)(O)O (stereo not shown) [Compound 8] | – | – | 90 nM | > 10 × |
